Measurements published in patent publication US20180087086A1, “CELL EGRESS AND INVASION INHIBITORS AND THEIR USE AS ANTIPARASITICAL AGENTS” (THE JOHNS HOPKINS UNIVERSITY, priority 2015, published 2018).

What was measured:
P. berghei sporozoites [1] = assay: trail radius of gliding sporozoites (ImageJ); type: cell-based; settings: 62.5 μM; 130-150 trail radii; p-value <0.0001
Procedure: The trail radius was measured using ImageJ and the statistical analyses to determine standard error mean and t-test were performed using GraphPad.
The gliding phenotype was altered to determine whether the compounds were having off-target effects. While quantifying the number of deposited trails, the trail diameter in the presence of compounds was altered. An altered trail diameter is more likely due to either a direct effect on the motor or an effect on sporozoite shape. The diameter of the circular trails deposited by the parasites in the DMSO control was measured and in the presence of three compounds at 62.5 μM (FIG. 8). This concentration was chosen because at higher concentrations, there were not enough sporozoite trails to measure to do a statistical analysis of the results. Using ImageJ, circles were fit to trails in multiple images to measure 130-150 trail radii. The average trail radii increased in the presence of compounds 4, 17, and 18 with a p-value <0.0001. The increase in average trail size was 6.3 microns, 2.5 microns, and 3.6, for compounds 4, 17, and 18, respectively.

sporozoites = assay: gliding motility assay with compound washout (reversibility); type: cell-based
Procedure: FIG. 13 B is a series of photomicrographs that show representative images from slides of gliding sporozoites. DMSO treated sporozoites (a, upper left) with circular gliding pattern versus (b, upper right) pyrazole-urea compound treated sporozoites with a unique wavy line gliding pattern. Below are images of a compound 4 washout slide at 7.8 μM showing a similar wavy gliding patterns in addition to circular gliding (c, d).
A gliding motility assay with a compound washout step was also performed to measure the reversibility of the compound's effects. The sporozoites were incubated at for a total of 20 min with the compound before they were washed and re-suspend and allowed to glide.

P. berghei sporozoites [2] = assay: in vitro sporozoite gliding assay (CSP trails on anti-CSP coated slides); type: cell-based; settings: for effect on gliding motility (comparison among the five compounds): 250-31.25 μM; for share of gliding sporozoites that were low gliding (less than 10 trails) / sporozoites gliding: lowest concentration of compound (31.25 μM)
Procedure: Compounds selected from the initial hit list were tested using in vitro gliding assays. Five compounds were selected for dose dependent testing on gliding motility based on early crystallographic experiments and first round gliding assay experiments at high concentration.
P. berghei sporozoites were purified from mosquitoes, incubated with compound, and allowed to glide on anti-CSP coated slides. The CSP-trails deposited by the gliding parasites were detected with anti-CSP antibodies. Trails were quantified for each sporozoite. The ability of each sporozoite to glide was categorized as no gliding (0 trails), and low (<10 trails), medium (10-20 trails), and high gliding (>20 trails).
In the DMSO control, more than 90% of sporozoites deposited trails, with >60% classified as medium and high gliding (>10 trails). […] At lower concentrations of compounds, the sporozoites did start to recover their gliding ability. However, for compound 4 at the lowest concentration of compound, less than 60% of the sporozoites were gliding and when they did glide, 90% of those sporozoites were depositing less than 10 trails and upon inspection of multiple fields, they typically could only complete one circular trail. For compound 18, less than 25% of sporozoites were able to glide at the lowest compound concentration and 75% of those sporozoites were low gliding, with less than 10 trails deposited; however, these low gliding parasites typically deposited more than 1 trail, unlike those from compound 4. […] However, from this single assay, it is not possible to assess whether the compounds were directly affecting the motor through the proposed TRAP-Aldolase interaction, by affecting an energy production step necessary to generate ATP for motor power, or by cytocidal effect.

[3] = molecular target: P. falciparum aldolase in the presence of TRAP (Plasmodium falciparum, UniProt Q7KQL9); assay: aldolase enzyme activity assay, P. falciparum aldolase in the presence of TRAP; type: biochemical; settings: in the presence of TRAP and the compounds
Excerpt: (§1) FIGS. 16A-16D depict an aldolase enzyme activity assay. (A) Cartoon and surface representation of aldolase with TRAPpep bound (magenta, sticks) (PDB entry 2pc4), overlapping the F16BP (green, sticks) substrate binding site (PDB entry 4ald), via PyMOL. (B) Coupled enzyme assay to measure aldolase activity via NADH consumption as measured at 340 nm. (C) Concentration-dependent effect of compounds on PfAldolase inhibition in the presence of PbTRAP peptide. Activity is normalized to the PbTRAP control, which reduces Vmax to 50% of enzyme without PbTRAP. (D) PfAldolase activity in the presence of compounds to determine direct inhibition of enzyme by the compounds. Activity is normalized to the PfAldolase control measured Vmax. Standard error means plotted for activity assays and standard deviation for SPR data.
(§2) Dose-Dependent Enzymatic Inhibition of Compounds on P. falciparum Aldolase and Rabbit Aldolase as a Surrogate for Human Aldolase.

rabbit aldolase = molecular target: T1, rabbit aldolase (Oryctolagus cuniculus, UniProt P00883); assay: aldolase enzyme activity assay, rabbit aldolase; type: biochemical; settings: surrogate for human aldolase
T1 sequence (P00883 1-364): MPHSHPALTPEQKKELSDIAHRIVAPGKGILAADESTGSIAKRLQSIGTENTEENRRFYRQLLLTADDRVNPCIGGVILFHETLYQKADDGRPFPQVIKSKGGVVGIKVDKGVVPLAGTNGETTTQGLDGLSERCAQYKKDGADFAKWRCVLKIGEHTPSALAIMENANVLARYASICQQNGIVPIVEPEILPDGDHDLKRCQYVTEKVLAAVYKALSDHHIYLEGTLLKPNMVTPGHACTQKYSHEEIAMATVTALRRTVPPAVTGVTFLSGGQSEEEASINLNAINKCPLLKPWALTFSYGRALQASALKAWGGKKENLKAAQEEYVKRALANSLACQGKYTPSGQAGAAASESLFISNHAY
Excerpt: as §1, §2

Plasmodium parasite = assay: cytocidal activity (assay not specified); type: cell-based; settings: 60 μM concentration
Excerpt: As described herein, inferring from sequence identity between TRAP and CTRP, the Aldolase-CTRP complex is inhibited during the mosquito stage.

Chain of P. falciparum aldolase in the presence of TRAP (Q7KQL9 whole entry): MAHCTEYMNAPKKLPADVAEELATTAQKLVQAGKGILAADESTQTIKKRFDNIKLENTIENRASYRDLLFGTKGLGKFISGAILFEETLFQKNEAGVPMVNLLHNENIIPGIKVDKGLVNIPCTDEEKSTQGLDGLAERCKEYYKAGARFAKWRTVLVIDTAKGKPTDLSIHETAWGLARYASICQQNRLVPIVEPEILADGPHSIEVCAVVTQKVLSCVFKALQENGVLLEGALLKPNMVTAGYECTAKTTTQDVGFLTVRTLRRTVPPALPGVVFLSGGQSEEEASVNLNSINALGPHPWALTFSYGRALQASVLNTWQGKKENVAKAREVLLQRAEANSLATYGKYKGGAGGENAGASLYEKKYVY

SMILES	increase in average trail size (trail radius) vs DMSO control (P. berghei sporozoites [1]) [microns]	reversibility of gliding effect after washout (sporozoites; 31.25 μM)	reversibility of gliding effect after washout (sporozoites; 62.5 μM)	reversibility of gliding effect after washout (sporozoites; 15.625 and 7.8125 μM, 20 min incubation before wash)	effect on gliding motility (comparison among the five compounds) (P. berghei sporozoites [2])	share of gliding sporozoites that were low gliding (less than 10 trails) (P. berghei sporozoites [2]) [%]	sporozoites gliding (P. berghei sporozoites [2])	inhibition of P. falciparum aldolase [3]	enzyme inhibition on rabbit aldolase (rabbit aldolase)	reversibility of gliding effect after washout (sporozoites; any concentration)	number of high gliding parasites after washout, relative to DMSO control (sporozoites; less than 8 μM) [%]	total number of parasites gliding after washout (sporozoites; less than 8 μM)	cytocidal activity (Plasmodium parasite)
CCCCn1c(N)c(C(=O)NCc2ccccc2)c2nc3ccccc3nc21 [Compound 18, 2-amino-N-benzyl-1-butyl-1H-pyrrolo[2,3-b]quinoxaline-3-carboxamide]	3.6	the number of high-gliding parasites increased	little reversibility	completely reversible	greatest effect	75	less than 25%						
Brc1ccc(Nc2nc3ccccc3nc2Nc2ccc(Br)cc2)cc1 [Compound 4, N,N′-bis(4-bromophenyl)-2,3-quinoxalinediamine]	6.3				greatest effect	90	less than 60%	inhibited	no enzyme inhibition	no complete reversibility	10	comparable to wild type	cytocidal activity
